Series [1] relates to GLI2FL, GLI3FL, SUFU and GLI3R in T8-derived Ofd1^KO neurons. The note with it: 10 μM SFN. Here is the method: (§1) Transfected cells and mouse tissues were lysed in modified RIPA buffer [150 mM sodium chloride, 50 mM Tris-HCl, pH7.4, 1% nonidet P-40, 0.1% sodium deoxycholate, 1 mM EDTA] with 1× proteasome inhibitor (Roche) and centrifuged at 4° C. for 15 minutes. Protein concentration was measured by Lowry assay using the DC Protein Assay Kit (Bio-Rad) on a DU 530 Life Science UV/Vis Spectrophotometer (Beckman Coulter). Total protein in each sample was separated by SDS-PAGE on 4% to 15% Mini-PROTEAN TGX Precast Gel (Bio-Rad) with a Spectra Multicolor Broad Range Protein Ladder (Fermentas) and transferred to an Immun-Blot PVDF Membrane (Bio-Rad). […] Densitometric analysis was performed with Image Lab (Bio-Rad), Quantity One (Bio-Rad), or ImageJ 1.44p (NIH) software.
(§2) HEK-293 or HEK-293-FT cells and human dermal fibroblasts were grown in DMEM (Invitrogen) containing 10% FBS (Invitrogen) and 2 mM L-glutamine (Invitrogen), hTERT-RPE1 cells in DMEM and Ham's F-12 Nutrient 1:1 mixture (DMEM/F-12; Invitrogen) with 10% FBS and 2 mM L-glutamine.

In series [2] the test system is IκBβ. The note with it: BBS4-, BBS1-, or OFD-suppressant cells. Here is the method: as §1, with “software. […]” for “software.”
Series [3] deals with β-catenin. Conditions: cells depleted of BBS4, relative to vehicle-treated cells; 10 μM SFN. Here is the method: as §1, with “software. […]” for “software.”
The subject of series [4] is bbs4, bbs1 and ofd1 morphant zebrafish embryos. As to the kind of experiment: Convergent extension (CE) and somite defects in morphant zebrafish embryos, coinjection. The note with it: for rescue of defective CE phenotypes, somitic defects, and persistent her4 expression: coinjection. The format is in vivo. Here is the method:
Morpholinos against bbs1 ([NT] ID NO: 13), bbs4 ([NT] ID NO: 14), and ofd1 ([NT] ID NO: 15) were purchased from Gene Tools, LLC. Human RPN10, RPN13, and RPT6 mRNA were in vitro transcribed with a mMESSAGE mMACHINE SP6 Kit (Ambion). SFN was dissolved in DMSO (Sigma-Aldrich) at a stock concentration of 1 M and further diluted in water to 10 mM. The morpholino and mRNA or SFN were mixed, and a volume of 0.5 nl was microinjected.

The subject of series [5] is her4 expression (Notch target) in bbs4 morphant zebrafish embryos. As to the kind of experiment: Whole-mount RNA in situ hybridization of her4 in morphant zebrafish. Type of series: in vivo. The note with it: bbs4 morphants, coinjection, 4.5 dpf. Here is the method:
Morpholinos against bbs1 ([NT] ID NO: 13), bbs4 ([NT] ID NO: 14), and ofd1 ([NT] ID NO: 15) were purchased from Gene Tools, LLC. Human RPN10, RPN13, and RPT6 mRNA were in vitro transcribed with a mMESSAGE mMACHINE SP6 Kit (Ambion). SFN was dissolved in DMSO (Sigma-Aldrich) at a stock concentration of 1 M and further diluted in water to 10 mM. The morpholino and mRNA or SFN were mixed, and a volume of 0.5 nl was microinjected. Zebrafish embryos were fixed overnight in 4% PFA at 4° C. Residual pigment was removed by bleaching with 3% H2O2/0.5% KOH.

In series [6] the test system is NF-κB signaling. Conditions: TNF-α stimulated cells with pSuperBBS4, pSuperBBS1 or pSuperOFD1; SFN 6 hours. Here is the method: as §2
For series [7], the system named is PSMB5, PSMB6, and PSMB7. Conditions: upon treatment with sulforaphane (ref. 36); cited from earlier work.

These results are taken from US20170016915A1, “SCREENING TARGETS AND COMPOSITIONS AND METHODS FOR TREATMENT OF CILIOPATHY DISORDERS” (Duke University, priority 2014, published 2017).

On to `C[S@@+]([O-])CCCCN=C=S` [SFN, 1-isothiocyanato-4(R)-methylsulfinylbutane], for which, in series [1], the GLI3R protein levels entry is “reduced”; the “accumulation of GLI3FL, GLI2FL, and SUFU” value is listed as “ameliorated”. For the same compound, the “accumulation of GFP-tagged IκBβ” value in series [2] was “ameliorated”. Also, in series [3], the β-catenin protein levels result is given as “reduction”. Also, in series [4] (bbs1 morphants), the “rescue of defective CE phenotypes, somitic defects, and persistent her4 expression” value is on record as “robust rescue”. The “bbs4 morphants with CE and somitic defects” value in series [4] (coinjection with bbs4 morpholino, blind scoring at 9±1 ss) is on record as “significant reduction”. In series [4] (ofd1 morphants), the “rescue of defective CE phenotypes, somitic defects, and persistent her4 expression” value was “robust rescue”. The “phenotype after injection of the substance alone” value in series [4] (zebrafish embryos, no morpholino) is “did not give rise to any obvious phenotype”. The “ectopic expression of her4 in neural structures” value in series [5] is “ameliorated”. Further, the “NF-κB activity (3X-κB-L luciferase reporter)” value in series [6] is recorded as “restored”. The “expression levels of PSMB5, PSMB6, and PSMB7 and corresponding peptidase activities” value in series [7] is “increase”.
